Calls of active or inactive are those of the source. No cut-off for these calls is given here.
What was measured:
[1] = Antiproliferative activity against human EU-1 cells assessed as inhibition of cell growth incubated for 48 hrs by WST assay; format: functional, cell-based; conditions: EU-1, 48 h
[2] = test system: EU-1; assay: Inhibition of MDM2/XIAP IRES mRNA interaction in human EU-1 cells assessed as increase in caspase-9 cleavage at 5 uM measured for 24 hrs by western blot analysis; format: cell-based
[3] = test system: EU-1; assay: Inhibition of MDM2/XIAP IRES mRNA interaction in human EU-1 cells assessed as increase in PARP cleavage at 5 uM measured for 24 hrs by western blot analysis; format: cell-based
[4] = test system: EU-1; assay: Inhibition of MDM2/XIAP IRES mRNA interaction in human EU-1 cells assessed as increase in caspase-3 cleavage at 5 uM measured for 24 hrs by western blot analysis; format: cell-based
[5] = test system: CFU-GM; assay: Inhibition of colony formation in human CFU-GM cells assessed as reduction in colony number and size at 1 uM incubated for 14 days by crystal violet staining based analysis; format: toxicity, cell-based; conditions: 336 h, time 14 day
[6] = Inhibition of colony formation in human BFU-E cells assessed as reduction in colony number and size at 1 uM incubated for 14 days by crystal violet staining based analysis; format: toxicity, cell-based; conditions: 336 h, time 14 day

Row | Compound | IC50 [1] | further results
1 | Cc1ccc(NS(=O)(=O)c2ccc3c(c2)C2C=CCC2C(c2ccc(C(=O)C(C)C)cc2)N3)cc1C (stereo unspecified) | 2.7 µM | –
2 | Cc1ccc(NS(=O)(=O)c2ccc3c(c2)C2C=CCC2C(c2ccc(S(C)(=O)=O)cc2)N3)cc1C (stereo unspecified) | 6.2 µM | –
3 | Cc1ccc(NS(=O)(=O)c2ccc3c(c2)C2OCCC2C(c2ccc(C(=O)C4CCCCC4)cc2)N3)cc1C (stereo unspecified) | 3.1 µM | –
4 | COC(=O)c1ccc(C2Nc3ccc(S(=O)(=O)Nc4ccc(C)c(C)c4)cc3C3C=CCC32)cc1 (stereo unspecified) | 4.7 µM | –
5 | Cc1ccc(NS(=O)(=O)c2ccc3c(c2)[C@@H]2OCC[C@@H]2[C@H](c2ccc(C(=O)C(C)C)cc2)N3)cc1C | 1.6 µM | –
6 | Cc1ccc(NS(=O)(=O)c2ccc3c(c2)C2CCCC2C(c2ccc(C(=O)C(C)C)cc2)N3)cc1C (stereo unspecified) | 7 µM | –
7 | COC(=O)c1ccc(C2Nc3ccc(S(=O)(=O)Nc4ccc(C)c(C)c4)cc3C3OCCCC23)cc1 (stereo unspecified) | 4.6 µM | –
8 | Cc1ccc(NS(=O)(=O)c2ccc3c(c2)[C@H]2OCC[C@H]2[C@@H](c2ccc(C(=O)C(C)C)cc2)N3)cc1C | 0.3 µM | –
9 | CC(C)C(=O)c1ccc(C2Nc3ccc(S(=O)(=O)Nc4ccccc4)cc3C3OCCC23)cc1 (stereo unspecified) | 3.2 µM | –
10 | Cc1ccc(NS(=O)(=O)c2ccc3c(c2)C2C=CCC2C(c2ccc(C(=O)O)cc2)N3)cc1C (stereo unspecified) | 7.5 µM | inhibition [2]: Active; inhibition [3]: Active; inhibition [4]: Active
11 | Cc1ccc(NS(=O)(=O)c2ccc3c(c2)C2c4ccccc4CC2C(c2ccc(C(=O)O)cc2)N3)cc1C (stereo unspecified) | 20.5 µM | –
12 | Cc1ccc(NS(=O)(=O)c2ccc3c(c2)[C@@H]2OCC[C@@H]2[C@@H](c2ccc(C(=O)C(C)C)cc2)N3)cc1C | 1.9 µM | –
13 | Cc1cc(NS(=O)(=O)c2ccc3c(c2)C2OCCC2C(c2ccc(C(=O)C(C)C)cc2)N3)ccc1F (stereo unspecified) | 2.9 µM | –
14 | Cc1ccc(N(C)S(=O)(=O)c2ccc3c(c2)C2OCCC2C(c2ccc(C(=O)C(C)C)cc2)N3C)cc1C (stereo unspecified) | 1.2 µM | –
15 | Cc1ccc(NS(=O)(=O)c2ccc3c(c2)C2OCCC2C(c2ccc(C(O)C(C)C)cc2)N3)cc1C (stereo unspecified) | 2 µM | –
16 | Cc1ccc(NS(=O)(=O)c2ccc3c(c2)C2OCCC2C(c2ccc(C(=O)C4CC4)cc2)N3)cc1C (stereo unspecified) | 5.2 µM | –
17 | CC(=O)c1ccc(C2Nc3ccc(S(=O)(=O)Nc4ccc(C)c(C)c4)cc3C3OCCC23)cc1 (stereo unspecified) | 0.5 µM | –
18 | Cc1ccc(NS(=O)(=O)c2ccc3c(c2)[C@H]2OCC[C@H]2[C@H](c2ccc(C(=O)C(C)C)cc2)N3)cc1C | 2.4 µM | –
19 | CCCC(=O)c1ccc(C2Nc3ccc(S(=O)(=O)Nc4ccc(C)c(C)c4)cc3C3OCCC23)cc1 (stereo unspecified) | 2.9 µM | –
20 | Cc1ccc(NS(=O)(=O)c2cc3c(cc2Cl)NC(c2ccc(S(C)(=O)=O)cc2)C2CC=CC32)cc1C (stereo unspecified) | > 50 µM | –
21 | Cc1ccc(NS(=O)(=O)c2ccc3c(c2)C2OCCC2C(c2ccc(C(=O)O)cc2)N3)cc1C (stereo unspecified) | > 50 µM | –
22 | COC(=O)c1ccc(C2Nc3c(Cl)cc(S(=O)(=O)Nc4ccc(C)c(C)c4)cc3C3OCCC23)cc1 (stereo unspecified) | > 50 µM | –
23 | Cc1ccc(NS(=O)(=O)c2ccc3c(c2)C2OCCC2C(c2ccc(C(=O)c4ccccc4)cc2)N3)cc1C (stereo unspecified) | 3.2 µM | –
24 | Cc1ccc(NS(=O)(=O)c2ccc3c(c2Cl)C2C=CCC2C(c2ccc(S(C)(=O)=O)cc2)N3)cc1C (stereo unspecified) | 23.4 µM | –

Row | Compound | IC50 [1] | further results
25 | Cc1ccc(N(C)S(=O)(=O)c2ccc3c(c2)C2OCCC2C(c2ccc(C(=O)C(C)C)cc2)N3)cc1C (stereo unspecified) | 1.6 µM | –
26 | Cc1ccc(NS(=O)(=O)c2ccc3c(c2)C2OCCC2C(c2ccc(S(C)(=O)=O)cc2)N3)cc1C (stereo unspecified) | 4.1 µM | –
27 | Cc1ccc(NS(=O)(=O)c2ccc3c(c2)C2OCCC2C(c2cccc4ccccc24)N3)cc1C (stereo unspecified) | 6.1 µM | –
28 | CC(=O)c1cccc(C2Nc3ccc(S(=O)(=O)Nc4ccc(C)c(C)c4)cc3C3OCCC23)c1 (stereo unspecified) | 2 µM | –
29 | COC(=O)c1ccc(C2Nc3ccc(S(=O)(=O)Nc4ccc(C)c(C)c4)cc3C3NCCC23)cc1 (stereo unspecified) | 3.5 µM | –
30 | Cc1ccc(NS(=O)(=O)c2ccc3c(c2)C2NCCC2C(c2ccc(C(=O)C(C)C)cc2)N3)cc1C (stereo unspecified) | 3.8 µM | –
31 | Cc1cc(NS(=O)(=O)c2ccc3c(c2)C2OCCC2C(c2ccc(C(=O)C(C)C)cc2)N3)ccc1Cl (stereo unspecified) | 6.3 µM | –
32 | COc1cccc2c1C(=O)c1c(O)c3c(c(O)c1C2=O)C[C@@](O)(C(=O)CO)C[C@@H]3O[C@H]1C[C@H](N)[C@H](O)[C@H](C)O1 [DOXORUBICIN] | – | Activity [5]: Toxic; Activity [6]: Toxic
33 | Cc1ccc(NS(=O)(=O)c2ccc3c(c2)C2OCCC2C(c2ccc(C(=O)C(C)C)cc2)N3)cc1 (stereo unspecified) | 3.3 µM | –
34 | Cc1ccc(NS(=O)(=O)c2ccc3c(c2)C2OCCC2C(c2ccc(Br)cc2)N3)cc1C (stereo unspecified) | 3.6 µM | –
35 | Cc1cccc(NS(=O)(=O)c2ccc3c(c2)C2OCCC2C(c2ccc(C(=O)C(C)C)cc2)N3)c1 (stereo unspecified) | 1.4 µM | –
36 | COC(=O)c1ccc(C2Nc3ccc(S(=O)(=O)Nc4ccc(C)c(C)c4)cc3C3OCCC23)cc1 (stereo unspecified) | 2.2 µM | –
37 | Cc1ccc(NS(=O)(=O)c2ccc3c(c2)C2OCCC2C(c2ccc(C(=O)C(C)C)cc2)N3)cc1Cl (stereo unspecified) | 1.6 µM | –
38 | COC(=O)c1ccc(C2Nc3ccc(S(=O)(=O)Nc4ccc(C)c(C)c4)cc3C3c4ccccc4CC23)cc1 (stereo unspecified) | 18.3 µM | –
39 | CC(C)C(=O)c1ccc(C2Nc3ccc(S(=O)(=O)Nc4ccc(Br)c(Br)c4)cc3C3OCCC23)cc1 (stereo unspecified) | 5.2 µM | –
40 | C=CC(=O)c1ccc(C2Nc3ccc(S(=O)(=O)Nc4ccc(C)c(C)c4)cc3C3OCCC23)cc1 (stereo unspecified) | 30 µM | –
41 | CC(C)C(=O)c1ccc(C2Nc3ccc(S(=O)(=O)Nc4ccc(Cl)c(Cl)c4)cc3C3OCCC23)cc1 (stereo unspecified) | 5.6 µM | –
42 | Cc1ccc(NS(=O)(=O)c2ccc3c(c2)C2OCCC2C(c2cccc(C(=O)C(C)C)c2)N3)cc1C (stereo unspecified) | 3.6 µM | –
43 | Cc1cc(NS(=O)(=O)c2ccc3c(c2)C2OCCC2C(c2ccc(C(=O)C(C)C)cc2)N3)ccc1C(F)(F)F (stereo unspecified) | 7.2 µM | –
44 | COC(=O)c1ccc(C2Nc3cc(Cl)c(S(=O)(=O)Nc4ccc(C)c(C)c4)cc3C3OCCC23)cc1 (stereo unspecified) | > 50 µM | –
45 | Cc1ccc(NS(=O)(=O)c2ccc3c(c2)C2NCCC2C(c2ccc(C(=O)O)cc2)N3)cc1C (stereo unspecified) | > 50 µM | –
46 | Cc1ccc(NS(=O)(=O)c2ccc3c(c2)C2OCCC2C(c2ccc(C(C)C)cc2)N3)cc1C (stereo unspecified) | 4.2 µM | –
47 | Cc1ccc(NS(=O)(=O)c2ccc3c(c2)C2OCCCC2C(c2ccc(C(=O)O)cc2)N3)cc1C (stereo unspecified) | > 50 µM | –
